{
  "source": "ChEMBL document CHEMBL1123320",
  "about": "“Studies in potential filaricides. 18. Synthesis of 2,2'-disubstituted 5,5'-dibenzimidazolyl ketones and related compounds as potential anthelmintics” (1986)",
  "key": {"[1]": {"system": "Cricetinae gen. sp.", "test": "Anthelmintic activity against Ancylostoma ceylanicum in hamsters at a dose of 12.5x1 mg/kg administered perorally", "format": "functional, Cricetulus griseus"}, "[2]": {"system": "Cricetinae gen. sp.", "test": "Anthelmintic activity against Ancylostoma ceylanicum in hamsters at a dose of 25x1 mg/kg administered perorally", "format": "functional, Cricetulus griseus"}, "[3]": {"system": "Cricetinae gen. sp.", "test": "Anthelmintic activity against Ancylostoma ceylanicum in hamsters at a dose of 50x1 mg/kg administered perorally", "format": "functional, Cricetulus griseus"}, "[4]": {"system": "Cricetinae gen. sp.", "test": "Anthelmintic activity against Ancylostoma ceylanicum in hamsters at a dose of 6.25 x1 mg/kg administered perorally", "format": "functional, Cricetulus griseus"}, "[5]": {"system": "Cricetinae gen. sp.", "test": "Anthelmintic activity against Ancylostoma ceylanicum (hook worm) in hamsters at a dose of 50x1 mg/kg administered perorally", "format": "functional, Cricetulus griseus"}, "[6]": {"system": "Mastomys natalensis", "test": "Filaricidal activity against Brugia malayi in Mastomys at a dosage of 200 mg/kg x 5 administered orally", "format": "functional", "details": "route oral"}, "[7]": {"system": "Mastomys natalensis", "test": "Filaricidal activity against Brugia malayi in Mastomys at a dosage of 50 mg/kg x 5 administered intraperitoneally", "format": "functional", "details": "route intraperitoneal"}, "[8]": {"system": "Mastomys natalensis", "test": "Filaricidal activity against Dipetalonema viteae in Mastomys at a dosage of 150 mg/kg x 5 administered orally", "format": "functional", "details": "route oral"}, "[9]": {"system": "Mastomys natalensis", "test": "Filaricidal activity against Dipetalonema viteae in Mastomys at a dosage of 25 mg/kg x 5 administered subcutaneous", "format": "functional"}, "[10]": {"system": "Mastomys natalensis", "test": "Filaricidal activity against Brugia malayi in Mastomys at a dosage of 200 mg/kg x 5 administered orally at a day of 63", "format": "functional", "details": "route oral"}, "[11]": {"system": "Mastomys natalensis", "test": "Filaricidal activity against Brugia malayi in Mastomys at a dosage of 200 mg/kg x 5 administered orally at a day of 8", "format": "functional", "details": "route oral"}, "[12]": {"system": "Mastomys natalensis", "test": "Filaricidal activity against Brugia malayi in Mastomys at a dosage of 200 mg/kg x 5 administered orally at a day of 91", "format": "functional", "details": "route oral"}, "[13]": {"system": "Mastomys natalensis", "test": "Filaricidal activity against Brugia malayi in Mastomys at a dosage of 50 mg/kg x 5 administered intraperitoneally at a day of 21", "format": "functional", "details": "route intraperitoneal"}, "[14]": {"system": "Mastomys natalensis", "test": "Filaricidal activity against Brugia malayi in Mastomys at a dosage of 50 mg/kg x 5 administered intraperitoneally at a day of 42", "format": "functional", "details": "route intraperitoneal"}, "[15]": {"system": "Mastomys natalensis", "test": "Filaricidal activity against Brugia malayi in Mastomys at a dosage of 50 mg/kg x 5 administered intraperitoneally at a day of 63", "format": "functional", "details": "route intraperitoneal"}, "[16]": {"system": "Mastomys natalensis", "test": "Filaricidal activity against Brugia malayi in Mastomys at a dosage of 50 mg/kg x 5 administered intraperitoneally at a day of 8", "format": "functional", "details": "route intraperitoneal"}, "[17]": {"system": "Mastomys natalensis", "test": "Filaricidal activity against Brugia malayi in Mastomys at a dosage of 50 mg/kg x 5 administered intraperitoneally at a day of 91", "format": "functional", "details": "route intraperitoneal"}, "[18]": {"system": "Mastomys natalensis", "test": "Filaricidal activity against Dipetalonema viteae in Mastomys at a dosage of 150 mg/kg x 5 administered orally at a day of 21", "format": "functional", "details": "route oral"}, "[19]": {"system": "Mastomys natalensis", "test": "Filaricidal activity against Dipetalonema viteae in Mastomys at a dosage of 150 mg/kg x 5 administered orally at a day of 42", "format": "functional", "details": "route oral"}, "[20]": {"system": "Mastomys natalensis", "test": "Filaricidal activity against Dipetalonema viteae in Mastomys at a dosage of 150 mg/kg x 5 administered orally at a day of 8", "format": "functional", "details": "route oral"}, "[21]": {"system": "Mastomys natalensis", "test": "Filaricidal activity against Dipetalonema viteae in Mastomys at a dosage of 25 mg/kg x 5 administered subcutaneous at a day of 21", "format": "functional"}, "[22]": {"system": "Mastomys natalensis", "test": "Filaricidal activity against Dipetalonema viteae in Mastomys at a dosage of 25 mg/kg x 5 administered subcutaneous at a day of 42", "format": "functional"}, "[23]": {"system": "Mastomys natalensis", "test": "Filaricidal activity against Dipetalonema viteae in Mastomys at a dosage of 25 mg/kg x 5 administered subcutaneous at a day of 8", "format": "functional"}, "[24]": {"system": "Mus musculus", "test": "Anthelmintic activity against Syphacia obvelata in mice at a dose of 100x1 mg/kg administered perorally", "format": "functional"}, "[25]": {"system": "Mus musculus", "test": "Anthelmintic activity against Syphacia obvelata in mice at a dose of 25x1 mg/kg administered perorally", "format": "functional"}, "[26]": {"system": "Mus musculus", "test": "Anthelmintic activity against Syphacia obvelata in mice at a dose of 50x1 mg/kg administered perorally", "format": "functional"}, "[27]": {"system": "Rattus norvegicus", "test": "Anthelmintic activity against Hymenolepis nana in rats at a dose of 100x1 mg/kg administered perorally", "format": "functional"}, "[28]": {"system": "Rattus norvegicus", "test": "Anthelmintic activity against Hymenolepis nana in rats at a dose of 250x1 mg/kg administered perorally", "format": "functional"}, "[29]": {"system": "Rattus norvegicus", "test": "Anthelmintic activity against Hymenolepis nana in rats at a dose of 50x1 mg/kg administered perorally", "format": "functional"}, "[30]": {"system": "Rattus norvegicus", "test": "Filaricidal activity against Litomosoides carinii in cotton rats at a dosage of 100 mg/kg x 5 administered orally", "format": "functional", "details": "route oral"}, "[31]": {"system": "Rattus norvegicus", "test": "Filaricidal activity against Litomosoides carinii in cotton rats at a dosage of 10 mg/kg x 5 administered intraperitoneally at a day of 42", "format": "functional", "details": "route intraperitoneal"}, "[32]": {"system": "Mastomys natalensis", "test": "Filaricidal activity against Brugia malayi in Mastomys at a dosage of 200 mg/kg x 5 administered orally at a day of 21", "format": "functional", "details": "route oral"}, "[33]": {"system": "Mastomys natalensis", "test": "Filaricidal activity against Brugia malayi in Mastomys at a dosage of 200 mg/kg x 5 administered orally at a day of 42", "details": "route oral"}, "[34]": {"system": "Sigmodon hispidus", "test": "Filaricidal activity against Litomosoides carinii in cotton rats at a dosage of 100 mg/kg x 5 administered orally at a day of 8", "details": "route oral"}, "[35]": {"system": "Sigmodon hispidus", "test": "Filaricidal activity against Litomosoides carinii in cotton rats at a dosage of 100 mg/kg x 5 administered orally at a day of 21", "details": "route oral"}, "[36]": {"system": "Sigmodon hispidus", "test": "Filaricidal activity against Litomosoides carinii in cotton rats at a dosage of 100 mg/kg x 5 administered orally at a day of 42", "details": "route oral"}, "[37]": {"system": "Sigmodon hispidus", "test": "Filaricidal activity against Litomosoides carinii in cotton rats at a dosage of 10 mg/kg x 5 administered intraperitoneally at a day of 8", "details": "route intraperitoneal"}, "[38]": {"system": "Sigmodon hispidus", "test": "Filaricidal activity against Litomosoides carinii in cotton rats at a dosage of 10 mg/kg x 5 administered intraperitoneally at a day of 21", "details": "route intraperitoneal"}, "[39]": {"system": "Sigmodon hispidus", "test": "Filaricidal activity against Litomosoides carinii in cotton rats at a dosage of 10 mg/kg x 5 administered intraperitoneally at a day of 42", "details": "route intraperitoneal"}},
  "data": [
    {"smiles": "COC(=O)Nc1nc2cc(C(=O)c3ccc4[nH]c(NC(=O)OC)nc4c3)ccc2[nH]1", "values": [
      {"measurement": "Animals cured", "setting": "[1]", "value": 0, "unit": "%"},
      {"measurement": "Worm reduction", "setting": "[1]", "value": 40.4, "unit": "%"},
      {"measurement": "Animals cured", "setting": "[2]", "value": 50, "unit": "%"},
      {"measurement": "Worm reduction", "setting": "[2]", "value": 60, "unit": "%"},
      {"measurement": "Animals cured", "setting": "[3]", "value": 100, "unit": "%"},
      {"measurement": "Animals cured", "setting": "[4]", "value": 0, "unit": "%"},
      {"measurement": "Worm reduction", "setting": "[4]", "value": 0, "unit": "%"},
      {"measurement": "Worm reduction", "setting": "[5]", "value": 100, "unit": "%"},
      {"measurement": "Death", "setting": "[6]", "value": 97, "unit": "%"},
      {"measurement": "Death", "setting": "[7]", "value": 99, "unit": "%"},
      {"measurement": "Death", "setting": "[8]", "value": 100, "unit": "%"},
      {"measurement": "Death", "setting": "[9]", "value": 100, "unit": "%"},
      {"measurement": "Removal of microfilariae", "setting": "[10]", "value": 63.9, "unit": "%"},
      {"measurement": "Removal of microfilariae", "setting": "[11]", "value": 0, "unit": "%"},
      {"measurement": "Removal of microfilariae", "setting": "[12]", "value": 94, "unit": "%"},
      {"measurement": "Removal of microfilariae", "setting": "[13]", "value": 60.1, "unit": "%"},
      {"measurement": "Removal of microfilariae", "setting": "[14]", "value": 89, "unit": "%"},
      {"measurement": "Removal of microfilariae", "setting": "[15]", "value": 89.4, "unit": "%"},
      {"measurement": "Removal of microfilariae", "setting": "[16]", "value": 0, "unit": "%"},
      {"measurement": "Removal of microfilariae", "setting": "[17]", "value": 93, "unit": "%"},
      {"measurement": "Removal of microfilariae", "setting": "[18]", "value": 0, "unit": "%"},
      {"measurement": "Removal of microfilariae", "setting": "[19]", "value": 100, "unit": "%"},
      {"measurement": "Removal of microfilariae", "setting": "[20]", "value": 0, "unit": "%"},
      {"measurement": "Removal of microfilariae", "setting": "[21]", "value": 58.8, "unit": "%"},
      {"measurement": "Removal of microfilariae", "setting": "[22]", "value": 100, "unit": "%"},
      {"measurement": "Removal of microfilariae", "setting": "[23]", "value": 0, "unit": "%"},
      {"measurement": "Animals cured", "setting": "[24]", "value": 100, "unit": "%"},
      {"measurement": "Animals cured", "setting": "[25]", "value": 0, "unit": "%"},
      {"measurement": "Animals cured", "setting": "[26]", "value": 66.6, "unit": "%"},
      {"measurement": "Animals cured", "setting": "[27]", "value": 50, "unit": "%"},
      {"measurement": "Animals cured", "setting": "[28]", "value": 100, "unit": "%"},
      {"measurement": "Animals cured", "setting": "[29]", "value": 16.6, "unit": "%"},
      {"measurement": "Death", "setting": "[30]", "value": 100, "unit": "%"},
      {"measurement": "Death", "setting": "[31]", "value": 100, "unit": "%"},
      {"measurement": "Removal of microfilariae", "setting": "[32]", "value": 0, "unit": "%"},
      {"measurement": "Removal of microfilariae", "setting": "[33]", "value": 30, "unit": "%"},
      {"measurement": "Removal of microfilariae", "setting": "[34]", "value": 72, "unit": "%"},
      {"measurement": "Removal of microfilariae", "setting": "[35]", "value": 80.9, "unit": "%"},
      {"measurement": "Removal of microfilariae", "setting": "[36]", "value": 100, "unit": "%"},
      {"measurement": "Removal of microfilariae", "setting": "[37]", "value": 65.6, "unit": "%"},
      {"measurement": "Removal of microfilariae", "setting": "[38]", "value": 100, "unit": "%"},
      {"measurement": "Removal of microfilariae", "setting": "[39]", "value": 100, "unit": "%"}
    ]}
  ]
}
